The subject of one test is PC3 cells. Briefly: PC3 growth inhibition (Cell-titer glo, 72 hours). To be noted: Homo sapiens, PC-3, PC3 cells, 72 hours, Cell-titer glo, read-out: Percent Inhibition (PC3 growth inhibition); for inhibition at 1.852 µM: compound concentration 1.852 μM; for inhibition at 1.667 µM: compound concentration 1.667 μM; for inhibition at 1 µM: compound concentration 1 μM. It counts as cell-based. A digest of the protocol: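 PC3 cells in RPMI1640 seeded overnight at 37 °C, 5% CO2, then exposed to compound diluted in AIM serum-free medium for 72 h. Viability by CellTiter-Glo luminescence vs DMSO controls; single-concentration % remaining viability (1 μM or 1.667 μM), or GI50/LD50 from curves.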

A further test addresses hNAMPT protein (Homo sapiens (Human), UniProt P43490). The test can be described thus: NAMPT enzyme assay (TR-FRET/HTRF, BodiPY ligand, anti 6His-Tb). The settings on record: for IC50: NAMPT IC50 range class, read-out: IC50; for inhibition at 1 µM: read-out: Percent Inhibition. The format is binding. A digest of the protocol:
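TR-FRET binding assay in which His-tagged human NAMPT with anti-6His-Tb is displaced by compound from a BodiPY ligand, incubated 1 h at rt in the dark. Excitation was at 320 nm, with the 520/486 nm emission ratio read. IC50 was fitted from inhibition relative to DMSO controls.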

Read-outs that look alike come from different tables or passages of the source.

Sequence of hNAMPT protein (P43490 whole entry): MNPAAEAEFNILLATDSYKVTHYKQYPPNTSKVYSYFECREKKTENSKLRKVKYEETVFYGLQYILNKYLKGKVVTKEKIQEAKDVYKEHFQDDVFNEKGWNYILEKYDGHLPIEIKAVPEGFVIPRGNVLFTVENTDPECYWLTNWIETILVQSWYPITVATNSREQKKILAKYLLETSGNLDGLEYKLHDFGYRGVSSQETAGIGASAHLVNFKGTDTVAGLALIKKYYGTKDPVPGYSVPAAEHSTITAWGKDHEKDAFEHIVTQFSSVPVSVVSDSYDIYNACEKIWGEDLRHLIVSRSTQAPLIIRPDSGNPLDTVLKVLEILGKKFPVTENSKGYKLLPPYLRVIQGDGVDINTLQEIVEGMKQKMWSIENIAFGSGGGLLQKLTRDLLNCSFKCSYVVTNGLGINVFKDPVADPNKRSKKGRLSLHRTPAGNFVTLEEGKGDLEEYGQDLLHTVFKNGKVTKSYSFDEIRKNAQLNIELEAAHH

On to `O=C(NCc1ccc2nccn2c1)c1ccc2nc(N3CCC(N4CCOCC4)CC3)c(-c3ccc(F)cc3)nc2c1` [Compound I-64, 3-(4-fluorophenyl)-N-(imidazo[1,2-a]pyridin-6-ylmethyl)-2-[4-(morpholin-4-yl)piperidin-1-yl]quinoxaline-6-carboxamide], for which the inhibition (as a rule, the change of the read-out against control, counted positive when it falls) at 1.852 µM with PC3 cells was found to be 2%. Moreover, at hNAMPT protein, the IC50 (commonly the point on the concentration scale where inhibition reaches its midpoint) was less than 100 nM. In addition, the inhibition at 1 µM at hNAMPT protein (compound concentration 1 μM) is 98%.

For `O=C(NCCOc1cccnc1)c1ccc2nc(-c3ccc(F)cc3)c(-c3ccc(F)cc3)nc2c1` [Compound I-65, 2,3-bis(4-fluorophenyl)-N-[2-(pyridin-3-yloxy)ethyl]quinoxaline-6-carboxamide], the inhibition at 1.667 µM in the test on PC3 cells was 2%. Moreover, the IC50 at hNAMPT protein is less than 100 nM. Further, the inhibition at 1 µM at hNAMPT protein (compound concentration 1 μM) was found to be 95%.

Consider `CC(C)(C)OC(=O)N1CCN(C2CCN(c3nc4ccc(C(=O)NCCCn5ccnc5)cc4nc3-c3ccccc3)CC2)CC1` [Compound I-66, tert-butyl 4-[1-(6-{[3-(1H-imidazol-1-yl)propyl]carbamoyl}-3-phenylquinoxalin-2-yl)piperidin-4-yl]piperazine-1-carboxylate], for which the inhibition at 1 µM was -1% with PC3 cells and 102% on hNAMPT protein (compound concentration 1 μM). Also, at hNAMPT protein, the concentration for half-maximal inhibition (IC50) was less than 100 nM.

For `COc1cccc(-c2nc3cc(C(=O)NCCc4cccnc4)ccc3nc2N2CCC(O)CC2)c1` [Compound I-67, 2-(4-hydroxypiperidin-1-yl)-3-(3-methoxyphenyl)-N-[2-(pyridin-3-yl)ethyl]quinoxaline-6-carboxamide], in the test with PC3 cells, the inhibition at 1.667 µM is 2%. Further, on hNAMPT protein, the IC50 was less than 100 nM. In addition, on hNAMPT protein (compound concentration 1 μM), the inhibition at 1 µM stood at 96%.

In the case of `Cn1cc2c(n1)OCCN(C(=O)c1ccc3nc(-c4ccc(F)cc4)c(-c4ccc(F)cc4)nc3c1)C2` [Compound I-68, [2,3-bis(4-fluorophenyl)quinoxalin-6-yl](2-methyl-2,4,6,7-tetrahydro-5H-pyrazolo[4,3-f][1,4]oxazepin-5-yl)methanone], the inhibition at 1 µM in the test on PC3 cells was determined as 101%; at hNAMPT protein (compound concentration 1 μM), 16%. In addition, on hNAMPT protein, the IC50 was in the range of 2000 to 10000 nM.

As to `O=C(NCCCn1ccnc1)c1ccc2nc(-c3ccccc3)c(-c3ccc4nccn4c3)nc2c1` [Compound I-69, N-[3-(1H-imidazol-1-yl)propyl]-3-(imidazo[1,2-a]pyridin-6-yl)-2-phenylquinoxaline-6-carboxamide], the values for the inhibition at 1 µM with PC3 cells and on hNAMPT protein (compound concentration 1 μM) were 0% and 75%, respectively. The IC50 at hNAMPT protein fell in the range of 100 to 500 nM.

Turning to `COc1cccc(-c2nc3cc(C(=O)NCCCc4cccnc4)ccc3nc2N2CCC(N3CCOCC3)CC2)c1` [Compound I-70, 3-(3-methoxyphenyl)-2-[4-(morpholin-4-yl)piperidin-1-yl]-N-[3-(pyridin-3-yl)propyl]quinoxaline-6-carboxamide], the inhibition at 1.667 µM in the test with PC3 cells worked out at 2%. Moreover, the IC50 on hNAMPT protein is less than 100 nM. Also, the inhibition at 1 µM at hNAMPT protein (compound concentration 1 μM) was greater than 99%.

For the compound `O=C(CCCn1ccnc1)Nc1ccc2nc(-c3ccc(F)cc3)c(-c3ccc(F)cc3)nc2c1` [Compound I-72, N-[2,3-Bis(4-fluorophenyl)quinoxalin-6-yl]-4-(1H-imidazol-1-yl)butanamide], the values for the inhibition at 1 µM in the test with PC3 cells and on hNAMPT protein (compound concentration 1 μM) were 2% and 46%, respectively. At hNAMPT protein, the IC50 fell in the range of 1000 to 2000 nM.

As to `COc1cccc(-c2nc3cc(C(=O)NCCc4cccnc4)ccc3nc2Cl)c1` [Compound I-73, 2-Chloro-3-(3-methoxyphenyl)-N-[2-(pyridin-3-yl)ethyl]quinoxaline-6-carboxamide], the inhibition at 1.852 µM in the test with PC3 cells is greater than 99%. Moreover, on hNAMPT protein, the IC50 fell in the range of 1000 to 2000 nM. On hNAMPT protein (compound concentration 1 μM), the inhibition at 1 µM was determined as 13%.

As to `CC(C)(C)OC(=O)NC1CCN(C2CCN(c3nc4ccc(C(=O)NCCCn5ccnc5)cc4nc3-c3ccccc3)CC2)CC1` [Compound I-74, tert-Butyl [1′-(6-{[3-(1H-imidazol-1-yl)propyl]carbamoyl}-3-phenylquinoxalin-2-yl)-1,4′-bipiperidin-4-yl]carbamate], the inhibition at 1 µM was -2% with PC3 cells and 100% on hNAMPT protein (compound concentration 1 μM). For the same compound, on hNAMPT protein, the IC50 was less than 100 nM.

On to `O=C(c1ccc2nc(-c3ccc(F)cc3)c(-c3ccc(F)cc3)nc2c1)N1CCc2[nH]ccc2C1` [Compound I-75, [2,3-bis(4-fluorophenyl)quinoxalin-6-yl](1,4,6,7-tetrahydro-5H-pyrrolo[3,2-c]pyridin-5-yl)methanone], for which the inhibition at 1 µM in the test on PC3 cells was determined as 96%; at hNAMPT protein (compound concentration 1 μM), 16%. At hNAMPT protein, the IC50 was 2000 to 10000 nM.

With `O=C(NCc1ccccn1)c1ccc2nc(-c3ccccc3)c(-c3ccccc3)nc2c1` [Compound I-76, 2,3-diphenyl-N-(pyridin-2-ylmethyl)quinoxaline-6-carboxamide], the results for the inhibition at 1 µM with PC3 cells and on hNAMPT protein (compound concentration 1 μM) were 92% and 29%, respectively. The IC50 on hNAMPT protein is 2000 to 10000 nM.

On to `O=C(NCCCc1nccs1)c1ccc2nc(N3CCC(O)CC3)c(-c3ccc(F)cc3)nc2c1` [Compound I-77, 3-(4-Fluorophenyl)-2-(4-hydroxypiperidin-1-yl)-N-[3-(1,3-thiazol-2-yl)propyl]quinoxaline-6-carboxamide], for which the inhibition at 1.667 µM in the test on PC3 cells was greater than 99%. Further, the IC50 at hNAMPT protein is 100 to 500 nM. Further, at hNAMPT protein (compound concentration 1 μM), the inhibition at 1 µM amounted to 86%.

For the compound `COC1CCN(c2nc3ccc(C(=O)NCCCc4ncc[nH]4)cc3nc2-c2ccc(F)cc2)CC1` [Compound I-78, 3-(4-fluorophenyl)-N-[3-(1H-imidazol-2-yl)propyl]-2-(4-methoxypiperidin-1-yl)quinoxaline-6-carboxamide], the inhibition at 1.667 µM with PC3 cells turned out to be 2%. The IC50 on hNAMPT protein was less than 100 nM. The inhibition at 1 µM on hNAMPT protein (compound concentration 1 μM) was greater than 99%.

Consider `O=C(NCCCn1ccnc1)c1ccc2nc(-c3ccccc3)c(-c3ccc(Cl)cc3)nc2c1` [Compound I-79, 3-(4-chlorophenyl)-N-[3-(1H-imidazol-1-yl)propyl]-2-phenylquinoxaline-6-carboxamide], for which the inhibition at 1 µM with PC3 cells is -8%; on hNAMPT protein (compound concentration 1 μM), 93%. Further, at hNAMPT protein, the IC50 is less than 100 nM.

For `O=C(NCCCn1ccnc1)c1ccc2nc(Oc3ccccc3)c(-c3ccccc3)nc2c1` [Compound I-80, N-[3-(1H-Imidazol-1-yl)propyl]-2-phenoxy-3-phenylquinoxaline-6-carboxamide], the values for the inhibition at 1 µM in the test on PC3 cells and on hNAMPT protein were 1% and 65%, respectively. Moreover, the half-inhibitory concentration (IC50) on hNAMPT protein lay within 500 to 1000 nM.

Regarding `CN1CCN(c2nc3ccc(C(=O)NCCCn4ccnc4)cc3nc2-c2ccccc2)CC1=O` [Compound I-81, N-[3-(1H-imidazol-1-yl)propyl]-2-(4-methyl-3-oxopiperazin-1-yl)-3-phenylquinoxaline-6-carboxamide], the inhibition at 1 µM in the test with PC3 cells was -7%; on hNAMPT protein (compound concentration 1 μM), 63%. Also, the IC50 on hNAMPT protein is 500 to 1000 nM.

In the case of `Cn1cncc1CCNC(=O)c1ccc2nc(N3CCC(N4CCOCC4)CC3)c(-c3ccc(F)cc3)nc2c1` [Compound I-82, 3-(4-Fluorophenyl)-N-[2-(1-methyl-1H-imidazol-5-yl)ethyl]-2-[4-(morpholin-4-yl)piperidin-1-yl]quinoxaline-6-carboxamide], the inhibition at 1.667 µM in the test on PC3 cells was found to be 2%. Further, the IC50 on hNAMPT protein was less than 100 nM. Also, on hNAMPT protein (compound concentration 1 μM), the inhibition at 1 µM is 98%.

For `O=C(NCCn1cccn1)c1ccc2nc(-c3ccc(F)cc3)c(-c3ccc(F)cc3)nc2c1` [Compound I-83, 2,3-bis(4-fluorophenyl)-N-[2-(1H-pyrazol-1-yl)ethyl]quinoxaline-6-carboxamide], the inhibition at 1 µM turned out to be 96% in the test on PC3 cells and 33% at hNAMPT protein (compound concentration 1 μM). Besides, the IC50 on hNAMPT protein was 2000 to 10000 nM.

Source of the values: patent US10144742B2 (Millennium Pharmaceuticals, Inc., priority 2014, dated 2018).
